Measurements published in publication PMC6372602, “On-target and off-target effects of novel orthosteric and allosteric activators of GPR84” (Scientific Reports, 2019).

Tests used:
[1] = target: T1, mouse GPR84-Gαi2 (Mus musculus, UniProt Q8CIM5); assay: […]GTPγS binding, membranes; format: biochemical; details: […] °C, pH […] GDP
T1 construct: N-terminal FLAG-tagged mouse GPR84 fused to Gαi2 (transducer / reporter; silent C636T in Gαi2); doxycycline-inducible Flp-In T-REx 293 cells; membranes

[2] = target: T2, mouse GPR35 (Mus musculus, UniProt Q9ES90); assay: β-arrestin-2 recruitment BRET, HEK293 cells; format: cell-based; details: agonist mode
T2 construct: C-terminal eYFP tag, HEK293 cells co-transfected with luciferase-tagged β-arrestin-2
T2 sequence (Q9ES90 whole entry): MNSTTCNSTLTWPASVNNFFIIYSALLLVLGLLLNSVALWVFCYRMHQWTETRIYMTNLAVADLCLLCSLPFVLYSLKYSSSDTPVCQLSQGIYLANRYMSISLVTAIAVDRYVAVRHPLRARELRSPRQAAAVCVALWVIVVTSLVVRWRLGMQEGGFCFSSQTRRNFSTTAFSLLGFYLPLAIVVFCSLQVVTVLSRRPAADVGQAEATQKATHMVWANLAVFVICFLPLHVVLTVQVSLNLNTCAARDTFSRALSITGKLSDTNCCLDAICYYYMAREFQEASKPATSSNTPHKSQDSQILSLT

[3] = target: T3, mouse GPR84 (RAW264.7 cells) (Mus musculus, UniProt Q8CIM5); assay: […]GTPγS binding, membranes; format: biochemical; details: agonist, LPS-treated cells, […] °C, pH […] GDP
T3 sequence (Q8CIM5 whole entry): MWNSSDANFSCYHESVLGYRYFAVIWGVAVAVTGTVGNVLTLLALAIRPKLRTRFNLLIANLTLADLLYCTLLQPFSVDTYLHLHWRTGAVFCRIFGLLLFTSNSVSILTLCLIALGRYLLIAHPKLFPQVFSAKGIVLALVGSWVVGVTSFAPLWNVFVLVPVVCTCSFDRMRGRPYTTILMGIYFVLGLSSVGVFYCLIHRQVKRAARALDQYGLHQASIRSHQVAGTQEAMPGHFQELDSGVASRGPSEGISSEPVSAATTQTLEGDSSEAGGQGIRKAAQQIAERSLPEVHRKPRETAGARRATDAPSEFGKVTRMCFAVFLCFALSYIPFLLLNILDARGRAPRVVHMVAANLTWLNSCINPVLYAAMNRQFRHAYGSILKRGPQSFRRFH

[4] = target: T4, human GPR35a (Homo sapiens, UniProt Q9HC97); assay: β-arrestin-2 recruitment BRET, HEK293 cells; format: cell-based; details: agonist mode
T4 construct: gene GPR35; C-terminal eYFP tag, HEK293 cells co-transfected with luciferase-tagged β-arrestin-2
T4 sequence (Q9HC97 whole entry): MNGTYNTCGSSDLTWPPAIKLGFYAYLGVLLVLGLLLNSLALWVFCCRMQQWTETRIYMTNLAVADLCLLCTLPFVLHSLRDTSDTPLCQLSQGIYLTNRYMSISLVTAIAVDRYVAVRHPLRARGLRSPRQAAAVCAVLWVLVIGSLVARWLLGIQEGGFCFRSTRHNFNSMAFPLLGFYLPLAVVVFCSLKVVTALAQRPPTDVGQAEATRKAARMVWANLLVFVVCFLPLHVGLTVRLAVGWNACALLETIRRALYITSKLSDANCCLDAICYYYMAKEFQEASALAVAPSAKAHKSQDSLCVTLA

[5] = target: T1, mouse GPR84-Gαi2; assay: inhibition of agonist-stimulated […]GTPγS binding, membranes; format: biochemical; details: antagonist; versus EC80 2-HTP
[6] = target: T5, GPR84 (THP-1 cells) (Homo sapiens, UniProt Q9NQS5); assay: as above; format: biochemical; details: antagonist, non-competitive; LPS-treated cells; versus EC80 2-HTP
T5 construct: endogenous receptor in membranes of LPS-treated THP-1 monocytes
T5 sequence (Q9NQS5 whole entry): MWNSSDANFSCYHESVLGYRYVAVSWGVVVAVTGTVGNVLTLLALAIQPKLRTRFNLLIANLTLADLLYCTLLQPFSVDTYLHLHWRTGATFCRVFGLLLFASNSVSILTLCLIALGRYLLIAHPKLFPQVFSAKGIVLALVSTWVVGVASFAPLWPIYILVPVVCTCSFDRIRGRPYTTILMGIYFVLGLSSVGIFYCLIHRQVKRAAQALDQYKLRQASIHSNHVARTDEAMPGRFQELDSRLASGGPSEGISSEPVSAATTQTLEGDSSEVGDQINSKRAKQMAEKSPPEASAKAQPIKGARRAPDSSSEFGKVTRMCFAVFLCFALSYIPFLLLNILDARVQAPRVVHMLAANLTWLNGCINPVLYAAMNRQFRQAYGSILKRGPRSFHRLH

[7] = target: T3, mouse GPR84 (RAW264.7 cells); assay: as above; format: biochemical; details: antagonist; LPS-treated cells; versus EC80 2-HTP
[8] = target: T6, human GPR84-Gαi2 (Homo sapiens, UniProt Q9NQS5); assay: as above; format: biochemical; details: antagonist, non-competitive; versus EC80 2-HTP
T6 construct: doxycycline-inducible Flp-In T-REx 293 cells; membranes
T6 sequence (Q9NQS5 whole entry): as above

[9] = target: T5, GPR84 (THP-1 cells); assay: saturation radioligand binding, membranes; details: labelled compound; antagonist; LPS-treated cells; […] °C, pH […]
[10] = target: T6, human GPR84-Gαi2; assay: […]GTPγS binding, membranes; format: biochemical; details: partial agonist, allosteric; […] °C, pH […] GDP

## Fc1cc(F)c2[nH]cc(Cc3c[nH]c4c(F)cc(F)cc34)c2c1 [PSB-16671, di(5,7-difluoro-1H-indole-3-yl)methane]
[1]; agonist, allosteric
  pEC50: 6.53 ± 0.07
[2]
  β-arrestin-2 recruitment BRET, HEK293 cells: neither PSB-16671 nor 2-HTP was able to activate mouse GPR35
[3]; allosteric
  pEC50: 6.75 ± 0.10

## CCCCCCSc1nc(O)cc(O)n1 [2-HTP, 2-(hexylthiol)pyrimidine-4,6 diol]
[4]
  β-arrestin-2 recruitment BRET, HEK293 cells: 2-HTP was also unable to activate human GPR35
[1]; agonist
  pEC50: 7.52 ± 0.11
[2]
  β-arrestin-2 recruitment BRET, HEK293 cells: neither PSB-16671 nor 2-HTP was able to activate mouse GPR35
[3]
  pEC50: 7.58 ± 0.08

## O=c1nc(OCC2COCCO2)cc2n1CCc1cc(C#CCNc3ccccc3)ccc1-2 (centres unmarked) [compound 107, 2-([1,4]dioxan-2-ylmethoxy)-9-(3-phenylamino-prop-1-ynyl)-6,7-dihydro-pyrimido[6,1-a]isoquinolin-4-one]
[5]
  pIC50: 6.90 ± 0.05
[6]
  pIC50: 7.86 ± 0.02
[7]
  pIC50: 6.50 ± 0.06
[8]
  pIC50: 8.14 ± 0.06

## [^3H]9543
[9]
  Kd: 0.18 ± 0.02 nM

## c1ccc2c(Cc3c[nH]c4ccccc34)c[nH]c2c1 [DIM]
[10]
  EC50: Equivalent studies using DIM confirmed the higher potency of PSB-16671
[1]; partial agonist, allosteric
  pEC50: 5.37 ± 0.08
